Measurements reported in patent publication US7807701B2, “Dibenzylamine compounds and pharmaceutical use thereof” (Japan Tobacco Inc., priority 2002, dated 2010).
Structures can show the parent of a compound that is named as a salt.

Assays:
CETP [1] = assay: Inhibitory effect exo vivo on CETP activity in total plasma of normal hamster; settings: blood taken 2 hr after administration, average values
Experimental: Potassium bromide (KBr) was added to plasma (40 mL) of healthy subject and the mixture was adjusted to have a specific density d=1.125 g/mL. The mixture was subjected to density gradient centrifugation (227,000×g, 4° C., 17 hr) and a fraction showing a specific density of d>1.125 g/mL (HDL3 fraction) was harvested. The obtained fraction was dialyzed against PBS solution [10 mmol/L Na2HPO4; 10 mmol/L NaH2PO4; 0.15 mol/L NaCl; […] (pH 7.4)]. Then, tritium-labeled cholesterol (37 MBq) was dissolved in 95% ethanol, gradually added to the above-mentioned HDL3 fraction with stirring and incubated at 37° C. for 18 hr. [By this operation, tritium-labeled cholesterol was esterified by the action of lecithin acyl transferase (LCAT) present on the HDL3 surface and taken up into HDL3 as tritium-labeled cholesteryl ester ([^3H]CE)]. After incubation, KBr was added, the mixture was adjusted to have a specific density d=1.21 g/mL, subjected to density gradient centrifugation (227,000×g, 4° C., 17 hr) and a fraction of specific density […] was harvested. The obtained fraction was dialyzed against the aforementioned PBS solution to give HDL3 incorporating [^3H]CE ([^3H]CE-HDL3, specific density: 1.125<d<1.21, specific activity: 10,000 dpm/μL), which was used as a donor lipoprotein.
The compound of the present invention was suspended in 0.5% methyl cellulose solution and orally administered once to a healthy hamster with a plastic gavage needle. Blood was taken at 2 or 4 hr after the administration and CETP activity in plasma was measured according to the following method.
The donor lipoprotein obtained above was added to hamster plasma (100 μL) to prepare [^3H]CE-HDL3-containing plasma (ca. 1,000 dpm/μL). The [^3H]CE-HDL3-containing plasma was dispensed to two microtubes by 25 μL each, and one was incubated at 37° C. and the other was incubated at 4° C. for 4 hr each. After ice-cooling, TBS solution (50 μl) containing 1 mol/L magnesium chloride and 2% dextran sulfate was added to each microtube and the mixture was thoroughly stirred. After keeping at […] for 30 min, the mixture was centrifuged (10,000×g, 4° C., 20 min), and the radioactivity in the obtained supernatant (HDL fraction) was measured with a liquid scintillation counter. The radioactivity of the [^3H]CE-HDL3-containing plasma was measured with a liquid scintillation counter, and taken as the total radioactivity. The transfer rate of [^3H]CE was calculated from the following formula using the total radioactivity (Total count), radioactivity by 37° C. incubation (37° C. count) and radioactivity by 4° C. incubation (4° C. count) of the sample of each individual and taken as the CETP activity. CETP activity(transfer ratio (%))={[(4° C. count)−(37° C. count)]/(Total count)}×100
The CETP activity inhibitory ratio of each compound administration group based on the CETP activity of the solvent administration group as 100% was calculated from the following formula and expressed in %.
CETP activity inhibitory ratio (%)=100−[(CETP activity of each compound administration group)/(CETP activity of solvent administration group)×100]

CETP [2] = biological target: T1, CETP (Homo sapiens, UniProt P11597); assay: Inhibitory effect in vitro on CETP activity in total plasma; type: biochemical; settings: plasma of healthy subject with [3H]CE-HDL3, 37° C., 4 hr; average values
T1 construct: The donor lipoprotein obtained above was added to plasma of healthy subject; from tissue; host or cells: whole plasma of healthy subject
T1 sequence (P11597 18-493): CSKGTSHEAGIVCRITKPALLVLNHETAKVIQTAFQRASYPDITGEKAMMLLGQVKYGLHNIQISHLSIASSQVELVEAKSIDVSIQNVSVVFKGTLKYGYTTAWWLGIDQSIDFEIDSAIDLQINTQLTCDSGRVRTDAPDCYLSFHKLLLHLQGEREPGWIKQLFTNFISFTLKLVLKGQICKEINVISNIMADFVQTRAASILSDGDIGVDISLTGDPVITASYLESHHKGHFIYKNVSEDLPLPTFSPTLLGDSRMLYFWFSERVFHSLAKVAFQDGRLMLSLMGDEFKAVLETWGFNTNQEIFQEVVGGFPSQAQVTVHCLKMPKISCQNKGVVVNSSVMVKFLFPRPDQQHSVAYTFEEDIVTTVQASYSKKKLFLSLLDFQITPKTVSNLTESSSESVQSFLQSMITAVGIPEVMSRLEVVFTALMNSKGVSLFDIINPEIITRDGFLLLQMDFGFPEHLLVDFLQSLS
Summary of the method: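 Healthy-donor plasma spiked with [3H]cholesteryl ester-labelled HDL3 (1,000 dpm/μL) was incubated with compound (DMF vehicle) for 4 hr at 37 °C or 4 °C. HDL was separated by MgCl2/dextran sulfate precipitation and supernatant radioactivity counted. IC50 is the concentration giving 50% inhibition of CETP activity.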

IC50 (CETP [2]) | Compound | CETP activity (%) 2 (hr later) (CETP [1]; single oral dose 30 mg/kg) | CETP activity (%) 2 (hr later) (CETP [1]; single oral dose 10 mg/kg)
510 nM | CCN(CCCCC(=O)O)c1cc2c(cc1CN(Cc1cc(C(F)(F)F)cc(C(F)(F)F)c1)c1ccn(C)n1)CCC2.Cl [Example 41, 5-[N-(6-{[N′-[3,5-bis(trifluoromethyl)benzyl]-N′-(1-methyl-1H-pyrazol-3-yl)amino]methyl}indan-5-yl)-N-ethylamino]pentanoic acid hydrochloride] | 36.0% | –
690 nM | CCN(CCCCC(=O)O)c1ccc(OC(F)(F)F)cc1CN(Cc1cc(C(F)(F)F)cc(C(F)(F)F)c1)c1nnn(C)n1.Cl [Example 89, 5-[N-(2-{[N′-[3,5-bis(trifluoromethyl)benzyl]-N′-(2-methyl-2H-tetrazol-5-yl)amino]methyl}-4-trifluoromethoxyphenyl)-N-ethylamino]pentanoic acid hydrochloride] | – | 77.7%
560 nM | CCN(CCCCCC(=O)O)c1cc2c(cc1CN(Cc1cc(C(F)(F)F)cc(C(F)(F)F)c1)c1nnn(C)n1)CCC2.Cl [Example 91, 6-[N-(6-{[N′-[3,5-bis(trifluoromethyl)benzyl]-N′-(2-methyl-2H-tetrazol-5-yl)amino]methyl}indan-5-yl)-N-ethylamino]hexanoic acid hydrochloride] | – | 44.7%
190 nM | CCN(CCC(C)(C)CC(=O)O)c1cc2c(cc1CN(Cc1cc(C(F)(F)F)cc(C(F)(F)F)c1)c1nnn(C)n1)CCC2.Cl [Example 92, 5-[N-(6-{[N′-[3,5-bis(trifluoromethyl)benzyl]-N′-(2-methyl-2H-tetrazol-5-yl)amino]methyl}indan-5-yl)-N-ethylamino]-3,3-dimethylpentanoic acid hydrochloride] | – | 46.9%
310 nM | CCN(C[C@H]1CC[C@H](C(=O)O)CC1)c1ccc(C(F)(F)F)cc1CN(Cc1cc(C(F)(F)F)cc(C(F)(F)F)c1)c1nnn(C)n1.Cl [Example 96, trans-4-{[N-(2-{[N′-[3,5-bis(trifluoromethyl)benzyl]-N′-(2-methyl-2H-tetrazol-5-yl)amino]methyl}-4-trifluoromethylphenyl)-N-ethylamino]methyl}cyclohexanecarboxylic acid hydrochloride] | – | 41.1%
300 nM | CCN(C[C@H]1CC[C@H](C(=O)O)CC1)c1ccc(OC(F)(F)F)cc1CN(Cc1cc(C(F)(F)F)cc(C(F)(F)F)c1)c1nnn(C)n1.Cl [Example 98, trans-4-[{N-(2-{[N′-[3,5-bis(trifluoromethyl)benzyl]-N′-(2-methyl-2H-tetrazol-5-yl)amino]methyl}-4-trifluoromethoxyphenyl)-N-ethylamino]methyl}cyclohexanecarboxylic acid hydrochloride] | – | 43.3%
160 nM | CCN(C[C@H]1CC[C@H](CC(N)=O)CC1)c1cc2c(cc1CN(Cc1cc(C(F)(F)F)cc(C(F)(F)F)c1)c1nnn(C)n1)OC(F)(F)C(F)(F)O2 [Example 138, trans-2-(4-{[N-(7-{[N′-[3,5-bis(trifluoromethyl)benzyl]-N′-(2-methyl-2H-tetrazol-5-yl)amino]methyl}-2,2,3,3-tetrafluoro-2,3-dihydrobenzo[1,4]dioxin-6-yl)-N-ethylamino]methyl}cyclohexyl)acetamide hydrochloride] | – | –
120 nM | CCN(C[C@H]1CC[C@H](CCO)CC1)c1ccc(OC(F)(F)F)cc1CN(Cc1cc(C(F)(F)F)cc(C(F)(F)F)c1)c1nnn(C)n1 [Example 140, trans-2-(4-{[N-(2-{[N′-[3,5-bis(trifluoromethyl)benzyl]-N′-(2-methyl-2H-tetrazol-5-yl)amino]methyl}-4-trifluoromethoxyphenyl)-N-ethylamino]methyl}cyclohexyl)ethanol hydrochloride] | – | –
120 nM | CCN(C[C@H]1CC[C@H](CO)CC1)c1cc(C(F)(F)F)c(C)cc1CN(Cc1cc(C(F)(F)F)cc(C(F)(F)F)c1)c1nnn(C)n1 [Example 141, trans-(4-{[N-(2-{[N′-[3,5-bis(trifluoromethyl)benzyl]-N′-(2-methyl-2H-tetrazol-5-yl)amino]methyl}-4-methyl-5-trifluoromethylphenyl)-N-ethylamino]methyl}cyclohexyl)methanol hydrochloride] | – | –

The remaining lines, values behind:

Compound | IC50 (CETP [2]) | CETP activity (%) 2 (hr later) (CETP [1]; single oral dose 30 mg/kg) | CETP activity (%) 2 (hr later) (CETP [1]; single oral dose 10 mg/kg)
CCN(CCCCC(=O)OC)c1cc2c(cc1CN(Cc1cc(C(F)(F)F)cc(C(F)(F)F)c1)c1nnn(C)n1)CCC2.Cl [Example 35, methyl 5-[N-(6-{[N′-[3,5-bis(trifluoromethyl)benzyl]-N′-(2-methyl-2H-tetrazol-5-yl)amino]methyl}indan-5-yl)-N-ethylamino]pentanoate hydrochloride] | 350 nM | 37.8% | –
CCN(CCCCC(=O)OC)c1cc2c(cc1CN(Cc1cc(C#N)cc(C(F)(F)F)c1)c1nnn(C)n1)CCC2.Cl [Example 36] | – | 33.3% | –
CCN(CCCCC(=O)OC)c1cc2c(cc1CN(Cc1cc(C(F)(F)F)cc(C(F)(F)F)c1)c1ccn(C)n1)CCC2.Cl [Example 37, methyl 5-[N-(6-[{N′-[3,5-bis(trifluoromethyl)benzyl]-N′-(1-methyl-1H-pyrazol-3-yl)amino]methyl}indan-5-yl)-N-ethylamino]pentanoate hydrochloride] | 800 nM | 45.4% | –
CCN(CCCCC(=O)O)c1cc2c(cc1CN(Cc1cc(C(F)(F)F)cc(C(F)(F)F)c1)c1nnn(C)n1)CCC2.Cl [Example 38, 5-[N-(6-{[N′-[3,5-bis(trifluoromethyl)benzyl]-N′-(2-methyl-2H-tetrazol-5-yl)amino]methyl}indan-5-yl)-N-ethylamino]pentanoic acid hydrochloride] | 470 nM | 79.4% | –
CCN(CCCCC(=O)O)c1cc2c(cc1CN(Cc1cc(C#N)cc(C(F)(F)F)c1)c1nnn(C)n1)CCC2.Cl [Example 39, 5-[N-(6-{[N′-(3-cyano-5-trifluoromethylbenzyl)-N′-(2-methyl-2H-tetrazol-5-yl)amino]methyl}indan-5-yl)-N-ethylamino]pentanoic acid hydrochloride] | 880 nM | 49.6% | –
CCN(CCCCC(=O)O)c1cc2c(cc1CN(Cc1cc(C(F)(F)F)cc(C(F)(F)F)c1)c1cc(C)no1)CCC2.Cl [Example 40, 5-[N-(6-{[N′-[3,5-bis(trifluoromethyl)benzyl]-N′-(3-methylisoxazol-5-yl)amino]methyl}indan-5-yl)-N-ethylamino]pentanoic acid hydrochloride] | 390 nM | 59.5% | –
trans-4-{[N-(6-{[N′-(3-cyano-5-trifluoromethylbenzyl)-N′-(3-methylisoxazol-5-yl)amino]methyl}indan-5-yl)-N-ethylamino]methyl}cyclohexanecarboxylic acid hydrochloride [Example 54] | 790 nM | – | –
